Measurements from paper PMC4833387 (PLoS ONE, 2016).

Biological target: T1, Aurora B kinase (Homo sapiens, UniProt Q96GD4)
T1 construct: gene AURKB; 6×His-Aurora B/INCENP^(822–918); with INCENP^(822–918)
Assay: in vitro […] kinase assay with recombinant complex (histone H3.[…] and MBP substrates); confirmed by IP kinase assay from HeLa lysates
Type: biochemical

T1 sequence (Q96GD4 whole entry): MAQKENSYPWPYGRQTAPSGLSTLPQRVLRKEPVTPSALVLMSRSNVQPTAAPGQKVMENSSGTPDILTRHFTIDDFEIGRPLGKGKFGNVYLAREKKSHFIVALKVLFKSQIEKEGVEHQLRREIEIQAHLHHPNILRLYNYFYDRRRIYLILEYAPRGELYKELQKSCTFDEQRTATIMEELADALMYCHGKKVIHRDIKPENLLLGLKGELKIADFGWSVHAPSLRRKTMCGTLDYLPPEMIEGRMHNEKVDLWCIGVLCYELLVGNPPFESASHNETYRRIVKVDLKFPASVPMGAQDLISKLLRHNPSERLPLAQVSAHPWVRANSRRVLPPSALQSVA
T1 sequence (Q9NQS7 822-918 partner): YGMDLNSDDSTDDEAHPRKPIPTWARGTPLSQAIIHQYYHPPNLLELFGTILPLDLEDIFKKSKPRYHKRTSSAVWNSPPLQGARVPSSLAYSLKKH

CC(=O)c1cnc2ccc(-c3cc(Cl)c(O)c(Cl)c3)nc2c1N[C@H]1CC[C@H](CN(C)C)CC1 [OTSSP167] gave an IC50 of about 25 nM.
